The values below are quoted from earlier work in patent US10918604B2, “Solid oral dosage forms of eslicarbazepine” (Jubilant Generics Limited, priority 2015, dated 2021).

For this series the following is noted: reported in background.

For `CC(=O)O[C@H]1Cc2ccccc2N(C(N)=O)c2ccccc21` [Eslicarbazepine acetate, (S)-10-acetoxy-10,11-dihydro-5H-dibenzo[b,f]azepine-5-carboxamide], the solubility in water result was “poorly soluble in water”.
